According to US8871900B2, “Fibroblast growth factor (FGF) analogs and uses thereof” (University of Rochester, priority 2008, dated 2014):
“Also recorded” adds a separate entry of the source. Peptide text beside a SMILES is read from it.

Columns and labels:
[1] = Stability of FGF-P; format: physicochemical
[2] = tested on: ERK Pathway; test: Phosphorylation of ERK pathway; format: cell-based
[3] = tested on: MCP-1, IL-6, TNFα; test: Plasma inflammatory molecules after sub-TBI (Luminex bead array); format: in vivo, mouse (Balb/c); conditions: Balb/c, 12 Gy sub-TBI, 3.5 days; FGF-P 2 mg/kg at 10 min post-IR and daily for two days
Protocol: Bead array technology has been developed to facilitate the study of cytokine expression profiles in normal tissues following radiation. Bead arrays have several advantages over ELISA. First, mice have a limited blood volume (0.3-0.4 ml of plasma/mouse). Each ELISA typically requires approximately 0.1 ml and thus only a limited number of assays are possible. Secondly, the time required to perform ELISAs one by one stresses the system in a large experiment and would be difficult to perform in the field in case of a radiological event. The Luminex bead array technology was used. The paired monoclonal antibodies, the highly-purified protein standards, and the more than 50 different cytokinespecific beads were purchased. In these studies, Balb/c mice received 12 Gy sub-TBI and then im injection of vehicle alone (0.2 ml of saline), FGF-P (2 mg/kg at 10 min post-IR and daily for two days), or Amifostine (200 mg/kg, either 30 min before IR, or 10 min after IR). The samples were collected 3.5 days after IR.
All three of these cytokines are associated with increased severity and progression of radiation-related inflammatory toxicity in mouse and man.

[4] = tested on: GM-CSF; test: Plasma cytokine arrays after IR; format: in vivo, mouse; conditions: post-IR
Text: A 96 cytokine membrane array (RayBioTech, Norcross, Ga.) and a Luminex Multiple cytokine beads array (Panomics, Fremont, Calif.) were used to determine the alteration of a panel of plasma cytokines after IR and the effect of FGF-P on reversing the altered pattern. […]-P also exerts homeostatic effect to keep cytokine level towards normal balance.

[5] = Plasma endotoxin (LPS) after TBI; format: in vivo, mouse; conditions: IR mice
Text: This relates with the FGF-P promotion of WBC regeneration. The low endotoxin indicates a low probability of endothelium damage and less consumption of platelet, which promotes the recovery of homeostasis of TBI mice.

[6] = tested on: proliferating crypts of small intestine; test: Crypt assay of small intestine after sub-TBI (H&E, BrdU, villi length); format: in vivo, mouse (Balb/c, C57BL/6)
Text: Enhanced proliferation of crypts in small intestine: The epithelium of the small intestine has a rapid turnover, renewing every 3-7 days. The stem cells are located ⅓ of the way up the […] and active mitosis can be seen above growing into the villus and below, forming the crypt. There are no definitive markers available to identify the stem cells, and thus the number of these cells in each crypt are unknown. When the bowel is irradiated, the number of crypts remains constant up to a dose just below the LD50/7. Above that dose, there is a log-linear decrease in the number of crypts, usually measured at 3.5 days. […] Data from the crypt assay can be augmented with injection of BrdU. BrdU can be given to animals at one or more times after irradiation to determine the rate of proliferation and rate of elongation of villi.
FGF-P was then repeated daily for 2 days. At 80 hr post-IR, BrdU (120 mg/kg) was injected ip and 4 hours later (about 3.5 days post-IR), the mice were sacrificed and the duodenal, jejunal and ileal segments (3-4 pieces/segment) were harvested, fixed in formalin, processed in paraffin blocks, cut in transverse sections of the full segment circumference (5 μm thick) and stained with H&E or anti-BrdU following the standard immunochemistry procedure (23). The proliferating crypts were defined as containing 10 or more adjacent chromophilic non-Paneth cells and a lumen. The circumference of a transverse cross-section of the intestine was used as a unit. The number of proliferating crypts was counted in each circumference. At least 10 circumferences were scored per mouse and 4-5 mice were used to generate each data point.
The villi length of duodenum, jejunum and ileum was measured using a customized Imaging Pro program.

[7] = tested on: Balb/c mice exposed to TBI; test: Survival after TBI (BM syndrome / ARS); format: in vivo, mouse (Balb/c); conditions: for mice survived: Balb/c
[8] = tested on: BM progenitors; test: BM progenitors (CD24, CD34) by flow cytometry after in vivo FGF-P; parameters: species or system mouse; conditions: in vivo administration following radiation
Text: To determine if the stem cells are better regenerated, freshly harvested BM cells were stained with CD24, CD34 (two critical markers for BM multi-potential progenitors) and TER119 (a marker for reticulcoytes), and then analyzed with flow cytometry. […] This is consistent with the above in vitro data. After IR, there appears a very active generation of BM progenitors, a rebound phenomenon, similar to the intestine crypts that actively regenerate following IR to compensate for lost villi.

[9] = Plasma endotoxin after sub-TBI (tachypleus amebocyte lysate kit); format: in vivo, mouse (Balb/c, C57BL/6); conditions: Balb/c, 10.5 Gy sub-TBI, 3.5 days post-IR; FGF-P treated (vehicle 3.32, normal 0.45)
Protocol: Some studies have employed bacterial culture of liver samples. Bacterial translocation occurs due to mucosal barrier changes (1) at the level of the basement membrane and (2) bowel mucous volume and composition. The most reliable and most clinically applicable method to measure bacterial translocation is the endotoxin assay. The level of plasma endotoxin 3.5 days post-IR was measured with a commercialized kit that utilized tachypleus amebocyte lysate to sensitively quantitate endotoxin at extremely low levels (<0.01 EU/ml); and 4) body weight (BW): poor nutrition and water absorption will result in reduced body weight. The rate and severity of weight loss, as well as the pace of body weight recovery, will be measured.
2) A standard scoring scale was used to evaluate stool formation (diarrhea). The bowel was extracted from the abdomen and visually inspected. Formed stool was easily distinguished from semi-solid and liquid stool as it passed from the ascending to descending colon. FIGS. 7B and 7C show the irradiated bowel in controls compared with FGF-P-treated Balb/c mice. The FGF-P was given at a dose of 2 mg/kg im for three daily doses beginning 15 min after irradiation. Animals were sacrificed 3.5 days after 10.5 Gy sub-TBI.

CC(C)C[C@H](NC(=O)[C@H](C)NC(=O)[C@@H](NC(=O)[C@H](Cc1ccc(O)cc1)NC(=O)[C@H](Cc1c[nH]c2ccccc12)NC(=O)[C@H](CO)NC(=O)[C@H](CO)NC(=O)[C@H](Cc1ccc(O)cc1)NC(=O)[C@H](CCCCN)NC(=O)[C@H](CCCNC(=N)N)NC(=O)[C@H](CO)NC(=O)[C@H](CCCNC(=N)N)NC(=O)[C@H](Cc1ccc(O)cc1)NC(=O)[C@@H](N)CS)C(C)C)C(=O)N[C@@H](CCCCN)C(=O)N[C@@H](CCCNC(=N)N)C(=O)N[C@@H](CS)C(=O)O [FGF-P, CYRSRKYSSWYVALKRC] (H-CYRSRKYSSWYVALKRC-OH; N-terminus and C-terminus assumed)
enzyme resistance ([1]; dry powder): enzyme-resistant as a dry powder
stability ([1]; severe conditions / liquid, boiling): stable as a liquid even with boiling; also recorded: stable under severe conditions, for example to boiling
effectiveness of boiled FGF-P ([1]; stability test, boiled vs original form): as effective as the original form
phosphorylation of ERK pathway [2]: triggers phosphorylation of ERK Pathway
plasma MCP-1, IL-6 and TNFα [3]: normalized or near-normalized these factors
plasma GM-CSF [4]: increased the IR-reduced GM-CSF
plasma level of endotoxin (LPS) [5]: reduced the LPS level
numbers of proliferating crypts in the bowel ([6]; 10.5 Gy sub-TBI, about 3.5 days post-IR, FGF-P 2 mg/kg im, repeated daily for 2 days): increased
crypt survival ([6]; 10.5 Gy sub-TBI, FGF-P 2 mg/kg im): approximately doubles crypt survival
proliferating crypts, BrdU staining method ([6]; 12 Gy, P<0.05): A similar result was obtained using the BrdU staining method
number of proliferating crypts ([6]; 12 Gy, duodenum, jejunum, ileum, P<0.05): higher number of proliferating crypts in duodenum, jejunum and ileum
crypt numbers in the ileum ([6]; Balb/c, 3.5 days after 12 Gy, FGF-P given after irradiation): Higher numbers of crypts
villi length ([6]; C57BL/6, 16 Gy sub-TBI, P<0.05): better preserved villi length in the duodenum and jejunum
crypt numbers ([6]; C57BL/6, doses as high as 16 Gy sub-TBI): improved crypt numbers in all sections of C57BL/6 small bowel
dose achieving best result ([7]; 7.1 Gy TBI, 15, 30, 60 mg/kg tested): 60 mg/kg
dose dependence of mitigation effect ([7]; 7.1 Gy TBI, FGF-P 15, 30, 60 mg/kg): dose-dependent effect
mitigation effect on ARS, DMF ([7]; Balb/c, 6.5, 7 and 7.5 Gy TBI, FGF-P 1 mg/kg IM right after TBI, daily for 5 days): DMF similar to that of native FGF2
mice survived ([7]; 6.5 Gy TBI): 87%
mice survived ([7]; 7.5 Gy TBI): 66%
mitigation effect with delayed delivery ([7]; FGF-P given 8 hour after 7.1 Gy IR): still effective
number of BM progenitors (CD24, CD34) [8]: increased the number of BM progenitors following radiation
plasma endotoxin level (mean) [9]: 2.12 EU/ml
